Data published in patent US5731322A, “Octahydro-1H-pyrrolo[3,2-g]and [2,3-g]isoquinoline derivatives” (SmithKline Beecham S.p.A., priority 1993, dated 1998).

Assays:
mu opioid receptor = target: T1, mu opioid receptor (Mus musculus, UniProt P42866); experiment: Opioid radioligand binding assay, mu ([3H]-DAMGO), mouse brain membranes; conditions: ratio of Ki, mu ([3H]-DAMGO) vs delta
T1 construct: Mouse brain membranes were prepared as described by Kosterlitz; from tissue; host or cells: mouse brain membranes
Protocol: (§1) Mouse brain membranes were prepared as described by Kosterlitz (Br. J. Pharmacol., 1981, 73, 939.). […] The binding of the mu ligand [^3 H]-DAMGO (Eur. J. Pharmacol., 1989, 166, 213) and of the kappa ligand [^3 H]-U69593 (Excerpta Medica, 1990, 211) were carried out at 0.5 nM. The non-specific binding was determined in presence of naloxone (10 μM) for all tritiated ligands. […] The IC50 obtained were used to calculate the inhibitory constants (Ki) accordingly to the Cheng and Prusoff relation (Biochem. Pharmacol., 1973, 22, 3099).

kappa opioid receptor = target: T2, kappa opioid receptor (Mus musculus, UniProt P33534); experiment: Opioid radioligand binding assay, kappa ([3H]-U69593), mouse brain membranes; conditions: ratio of Ki, kappa ([3H]-U69593) vs delta
T2 construct: Mouse brain membranes were prepared as described by Kosterlitz; from tissue; host or cells: mouse brain membranes
Protocol: as §1

delta receptor [1] = target: T3, delta receptor (Mus musculus, UniProt P32300); experiment: Mouse vas deferens (MVD) bioassay, delta agonist/antagonist studies, electrically stimulated tissue; format: cell-based, mouse (CD-1); design: Vasa deferentia were obtained from CD-1 mice; from tissue; host or cells: vas deferens of CD-1 mice
Protocol: Vasa deferentia were obtained from CD-1 mice and were suspended in a Mg^2+ -free Krebs buffer at 37° C. For the delta agonist/antagonist studies, the tissues were electrically stimulated with pulse trains having the following parameters: train duration 50 ms, stimulus duration 2 ms, frequency of stimuli 50 Hz, maximal voltage 60-70 V, train frequency 0.1 Hz. Concentration response curves for each compounds were constructed cumulatively. Linear regression analysis and IC50 concentrations were evaluated according to Tallarida and Murray (Manual of Pharmacological Calculations, Springer Verlag N.Y., 1981).

delta receptor [2] = target: T3, delta receptor; experiment: Opioid radioligand binding assay, delta ([3H]-DADLE in presence of unlabelled DAMGO), mouse brain membranes; design: Mouse brain membranes were prepared as described by Kosterlitz; from tissue; host or cells: mouse brain membranes; conditions: [3H]-DADLE 1.3 nM, 40 nM DAMGO
Protocol: as §1

T3 sequence (P32300 whole entry): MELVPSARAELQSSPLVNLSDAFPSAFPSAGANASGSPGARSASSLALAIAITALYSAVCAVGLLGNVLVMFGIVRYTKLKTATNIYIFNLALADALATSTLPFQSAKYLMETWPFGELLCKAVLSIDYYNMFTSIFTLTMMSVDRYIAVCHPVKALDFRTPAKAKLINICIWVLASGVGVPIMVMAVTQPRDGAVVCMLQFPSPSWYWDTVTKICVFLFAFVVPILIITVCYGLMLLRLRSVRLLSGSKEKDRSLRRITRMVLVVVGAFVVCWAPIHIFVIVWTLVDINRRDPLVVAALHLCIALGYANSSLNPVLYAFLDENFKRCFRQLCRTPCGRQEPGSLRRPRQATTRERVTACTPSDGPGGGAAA
T1 sequence (P42866 whole entry): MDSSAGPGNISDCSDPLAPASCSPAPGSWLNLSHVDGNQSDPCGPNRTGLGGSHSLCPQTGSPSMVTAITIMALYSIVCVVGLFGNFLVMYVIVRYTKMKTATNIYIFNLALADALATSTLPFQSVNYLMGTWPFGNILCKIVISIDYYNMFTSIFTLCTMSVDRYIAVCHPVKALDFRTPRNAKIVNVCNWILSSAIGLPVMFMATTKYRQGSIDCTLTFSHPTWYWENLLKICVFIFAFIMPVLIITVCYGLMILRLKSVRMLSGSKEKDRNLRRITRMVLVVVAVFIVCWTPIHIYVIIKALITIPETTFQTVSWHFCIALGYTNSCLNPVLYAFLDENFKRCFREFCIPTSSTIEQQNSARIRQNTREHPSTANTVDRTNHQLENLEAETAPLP
T2 sequence (P33534 whole entry): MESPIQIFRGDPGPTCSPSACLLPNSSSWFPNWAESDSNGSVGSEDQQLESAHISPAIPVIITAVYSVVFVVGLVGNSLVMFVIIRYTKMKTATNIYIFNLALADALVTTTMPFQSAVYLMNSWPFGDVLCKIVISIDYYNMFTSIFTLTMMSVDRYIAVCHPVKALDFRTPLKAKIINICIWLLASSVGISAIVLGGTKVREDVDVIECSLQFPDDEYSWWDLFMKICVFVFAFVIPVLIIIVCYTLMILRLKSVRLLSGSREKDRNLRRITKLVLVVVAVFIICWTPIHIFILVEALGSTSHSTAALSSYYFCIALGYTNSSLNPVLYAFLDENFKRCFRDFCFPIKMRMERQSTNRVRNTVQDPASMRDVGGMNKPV

## CCN(CC)C(=O)c1[nH]c2c(c1C)C[C@@H]1CN(C)CC[C@@]1(c1cccc(O)c1)C2.Cl (racemic) [Example 10, (±)-trans-2-Diethylaminocarbonyl-3,6-dimethyl-8a-(3-hydroxyphenyl)-4,4a,5,6,7,8,8a,9-octahydro-1H-pyrrolo[2,3-g]isoquinoline hydrochloride]
Mu opioid receptor
  Ki mu/Ki delta: 45
Kappa opioid receptor
  Ki kappa/Ki delta: 403
Delta receptor [1]
  Kb: 7 nM
Delta receptor [2]
  Ki: 2.15 nM

## CCN1CC[C@@]2(c3cccc(O)c3)Cc3[nH]c(C(=O)N(CC)CC)c(C)c3C[C@@H]2C1.Cl (single isomer, unassigned) [Example 34, (-)-trans-2-Diethylaminocarbonyl-6-ethyl-8a-(3-hydroxyphenyl)-3-methyl-4,4a,5,6,7,8,8a,9-octahydro-1H-pyrrolo[2,3-g]isoquinoline hydrochloride]
Mu opioid receptor
  Ki mu/Ki delta: 110
Kappa opioid receptor
  Ki kappa/Ki delta: 1105
Delta receptor [1]; mouse vas deferens, delta agonist study, read-out: IC50 in the MVD preparation (delta agonists)
  IC50: 26 nM
Delta receptor [2]
  Ki: 0.73 nM
